Data published in patent US11311625B2, “Peptide-based multiple-drug delivery vehicle” (priority 2015, dated 2022).

Columns and labels:
[1] = Chemo-stability and drug release of conjugates 1a-e in buffers at pH 2, 5 and 7.4 (LC-MS); type: physicochemical; details: acidic pH 2
Method: Incubation procedure: Aqueous stability was determined at pH 2.0 (phosphate buffer), 5.0 (citrate buffer) and 7.4 (PBS buffer). 100 μl of the stock solutions were diluted to 2.5 ml with the desired buffer and then incubated at 37° C. During the incubation period (up to 200 hrs.), aliquots were removed at different time intervals, filtered and analyzed by LC-MS.
Chemo-stability. The chemo-stability tests of the conjugates were performed at three different pH values; a physiological pH of 7.4, the slightly acidic pH 5, mimicking the microenvironment in tumors, and the more acidic pH 2.
FIGS. 11A-11J present the results of the chemo-stability and drug release profiles assays, conducted for conjugates 1a-e at pH 2, 5 and 7.4. Degradation of 1a (FIG. 11A), 1b (FIG. 11C), 1c (FIG. 11E), 1d (FIG. 11G), 1e FIG. 11 (FIG. 11I), and the release of the corresponding drugs: CLB (FIG. 11B), CPT (FIG. 11D), AM (FIG. 11F), ABT-751 (FIG. 11H), and COMB (FIG. 11J). Stock solutions were prepared by dissolving 5 mg of the measured conjugate in 0.5 ml DMSO. 100 μl of the stock solution were diluted to 2.5 ml with the relevant buffer and then incubated at 37° C. Along the incubation period, aliquots were taken at the desired time points and analyzed by LC-MS.

[2] = test system: HCT 116, H1299, TRAMP C2 and HEK cell lines; assay: XTT growth inhibition assay, statements over all tested cell lines; type: cell-based, human; details: for cytotoxicity throughout the study: 1-10 μM, 24 and 72 h
Method: The cytotoxicity of the peptide-drug conjugates was determined by measuring the mitochondrial enzyme activity, using a commercial XTT assay kit. All samples contained DMSO at final concentration <0.05%. Cells were cultured in micro wells at 2-4×10^4 cells/ml and incubated for 24 h or 72 h. After the first incubation period the cultures were washed and then given fresh medium containing different concentrations of the tested substances. At the end of the second incubation, XTT reagent was added and the cells were re-incubated for additional 2-4 h. During that time the absorbencies in the wells were measured with a TECAN Infinite M200 plate reader at both 480 and 680 nm. The difference between these measurements was used for calculating the % Growth Inhibition (GI) in test wells compared to two controls: cells that were exposed to the medium and solvent, and those that were exposed to a solvent-free medium. All the tests were done in quadruplicates. Each experiment was conducted twice.
In order to compare the cytotoxic effects of the conjugates relative to the free drugs, the in vitro cytotoxic effect of the drug bioconjugates 1a-e was determined on SSTR2 overexpressed HCT 116 human colorectal carcinoma, H1299 human non-small cell lung carcinoma and TRAMP C2 human prostate cancer cell lines. The SSTR2 low-expressed HEK-293 (Human Embryonic Kidney 293) cell line was used as a negative control. The study was elaborated over a concentration range of 1-10 μM.
FIGS. 13A-13D present the results of the XTT growth inhibition assay conducted for conjugates 1a-e. Growth inhibition effect of drug-conjugates versus free drugs was studied on three cell lines with an over-expression of SSTR2 (FIG. 13A. HCT 116; FIG. 13B. H1299; FIG. 13C. TRAMP C2) against the SSTR2 low expression cell line (FIG. 13D) HEK as negative control. All the cell lines were seeded and allowed to adhere in the wells, after which they were treated with the different compounds in increasing concentrations for 24 and 72 hr. After the treatment, growth inhibition was measured using the XTT assay: The culture medium was replaced by a new one, and then the XTT reagent was added. The wells were incubated for 2-4 hrs. after which the optical density (OD) was measured at 480 and 680 nm. Percentage of growth inhibition for each compound was calculated by comparison of the treated culture versus a control culture (free of any compound). The result shown for each concentration point represents the mean±standard error calculated from two different experiments. In each experiment the compounds were tested in quadruplicates.

[3] = Chemo-stability and drug release of 9a and CLB in buffers at pH 2, 5 and 7.4 (LC-MS); type: physicochemical
Method: Stock solutions chemo-stability studies were prepared by dissolving 5 mg of the tested compound in 5000 μl of DMSO.
Incubation procedure: Aqueous stability was determined at pH 2, 5 and 7.4. Aliquots (100 μl) of stock solution were diluted to a total of 2.5 mL with the desired buffer and then incubated at 37° C. During the incubation period (up to 160 h) 250 μL portions were drawn at different time intervals, filtered and analyzed by LC-MS.
Peptidyl delivery systems loaded with anticancer drugs are expected to reach their site of action with minimal degradation. The PDS should be stable enough to be absorbed by cancer cells and only then deliver its toxic cargo. Chemo-stability and bio-stability studies may give us a background check for the endurance of our compact peptidyl DDS under the different conditions it is expected to encounter in a potential animal test. To that end, samples of 9a were incubated at pH 2, mimicking stomach conditions, at pH 5 mimicking the microenvironment in tumors, and at physiological pH 7.4, all at 37° C. Aliquots from the stock solutions were extracted at different time intervals and analyzed by LC-MS following the decrease in concentration of 9a (i.e., chemical degradation) and the formation of the dihydroxy derivative 11. In addition, the direct release of the different drugs was also followed based on the increase in the concentration of CLB, AZA and CAMP over time. In this analysis samples of 9a, 11, CLB, AZA and CAMP were used as references. Overall, the HPLC trace presents a very complex mixture of metabolites which could not be exhaustively characterized. Scheme 9 below presented the molecular structure 11.

[4] = Bio-stability of 9a in murine liver homogenate (LH); type: in vitro ADME, mouse
Method: Preparation of the LH and assay: Mice were sacrificed by CO2 inhalation euthanasia. The livers were removed, minced, washed three times in cold PBS buffer and homogenized in Tris-HCl, pH 7.4 buffer (wt/3 vol.) by dozen strokes in a Potter-Elvehjem glass tissue grinder. The tissue homogenate was centrifuged at 4° C., 14000 rpm, 20 min. The supernatant was carefully collected (LH) and used immediately or else stored in liquid nitrogen. The concentration of protein was measured using the BCA protein assay with bovine serum albumin as a standard.
Assay incubation procedure: Incubations were conducted in an incubator oven set at 37° C. Each incubation tube contained 2 mL homogenate samples (equivalent to 6 mg total protein of mouse LH). The samples were prepared by adding 50 μL of stock solution to the LH at the beginning of the incubation period. Aliquots (100 μL) of the LH mixture were removed after 10, 30, 60, 90, 120, and 180 min. immediately quenched with 2.5 volumes of ethanol, and centrifuged at 14000 rpm for 15 min. The supernatants were collected, filtered and analyzed by LC-MS.
In order to get a biologically relevant picture of the release sequence of the different drugs, the bio-stability of 9a in murine liver homogenate (LH) was studied. Examination of the degradation rate of 9a, accompanied by cleavage of free drugs, was carried out following the LC-MS trace at different time intervals using premade authentic samples as reference signals.

SMILES: CN(C)CCN1C(=O)c2cccc3cc(N)cc(c23)C1=O [amonafide, reference compound]
- stability of free drug [1]: relatively low stability
- cytotoxicity throughout the study [2]: poorly active

SMILES: COc1ccc(/C=C\c2cc(OC)c(OC)c(OC)c2)cc1O [COMB, combretastatin A4]
- IC50 values ([2]; tested cell lines including HEK): low μM range

SMILES: O=C(O)CCCc1ccc(N(CCCl)CCCl)cc1 [CLB, Chlorambucil, reference compound]
- degradation of pure CLB ([3]; all tested pH values (2, 5, 7.4), 37° C.): considerable degradation
- relative stability of CLB ([3]; pH 5): least stable
- cytotoxicity throughout the study [2]: poorly active

SMILES: CC[C@]1(OC(=O)NCCCC[C@H](NC(=O)CCCc2ccc(N(CCO)CCO)cc2)C(=O)NCCCC[C@H](NC(=O)Oc2c(OC)cc([C@H]3c4[nH]c5ccccc5c4CC4COC(=O)N43)cc2OC)C(=O)O)C(=O)OCc2c1cc1n(c2=O)Cc2cc3ccccc3nc2-1 (stereo partly drawn) [compound 11]
- time after which no traces of 11 are left ([3]; all three pH cases): 40 h
- time at which formation of 11 from 9a reaches its maximum ([3]; all three pH cases): 5 h

SMILES: COc1cc([C@@H]2c3[nH]c4ccccc4c3C[C@H]3COC(=O)N32)cc(OC)c1OC(=O)N[C@@H](C)C(=O)O [compound 12]
- time the carbamate link remains intact in LH [4]: at least 120 min
